In one assay the target is IKZF1 Ikaros (Homo sapiens, UniProt Q13422+Q96SW2). The experiment in a line: Human CD8+ T Cell Reprogramming Assay (IKZF1 Ikaros). In kind it is cell-based. Further details: Cryopreserved healthy donor human peripheral blood mononuclear cells; endogenous in cells; host or cells: primary human PBMC, CD8+ T cells read by flow cytometry. Here is the method: Cryopreserved healthy donor human peripheral blood mononuclear cells (PBMC) from healthy donors were thawed and seeded at 500,000 cells/well of 96-well round bottom plates in RPMI 1640 media (Gibco) supplemented with 10% FBS, Pen/Strep (Gibco), MEM-NEAA (Gibco), and sodium pyruvate (Gibco). Cells were treated with titrated doses of compound for 24 hours at 37° C., 5% CO2 before analyzing by flow cytometry.
(§1) For flow cytometry staining, cells were washed twice with flow cytometry staining buffer (Thermo Fisher) and incubated in Human Tru-stain Fc block (Biolegend) for 10 minutes before adding eFluor780 viability dye (Thermo Fisher) and surface marker antibody cocktail containing LD-eFluor780, CD3-BUV-395, CD4-BUV805, CD8-FITC, and CD25-BV605 for 30 minutes at 4° C. Cells were then fixed and permeabilized by incubation with permeabilization buffer (eBioscience FoxP3 buffer set 00-5523-00) for 30 minutes at 4° C. as per the kit manufacturer's instructions. Cells were washed twice with the Perm/Wash buffer supplied in the kit as per the manufacturer's instructions and incubated overnight at 4° C. with an intracellular antibody cocktail comprised of antibodies specific for the transcription factors (i.e., Foxp3-BV421, HELIOS-PE-Cy7, EOS-PE, IKAROS-PECF594, AIOLOS-AF647). Cells were washed twice with Perm/Wash buffer and resuspended in flow cytometry staining buffer (Thermo Fisher) prior to acquisition. Sample acquisition and analysis was performed using a BD LSRFortessa (BD Biosciences) flow cytometer. Single-stain controls for each fluorochrome were prepared using UltraComp eBead Compensation Beads (Thermo Fisher). Data were analyzed using FlowJo version 10 and GraphPad Prism Software.
Table D-1 lists the maximum observed degradation of the IKZF1 protein and IKZF3 protein as measured in the Human CD8^+ T Cell Reprogramming assay. The results in Table D-1 were rounded to two digits. In the Human CD8^+ T Cell Reprogramming assay, a value of 100% indicated no detectable protein remaining or complete degradation of the protein; and a value of 0% indicated no detectable degradation of the protein by the test compound.

The target of the next assay is T1, IKZF4 Eos (Homo sapiens, UniProt Q96SW2+Q9H2S9).
T1 construct: T cells were isolated from fresh healthy leukopaks; endogenous in cells; host or cells: FACS-sorted primary human CD4+ CD127low CD25+ Treg cells from healthy leukopaks
Description: Human Regulatory T Cell Reprogramming Assay (IKZF4 Eos). Type of assay: cell-based. The note with it: CD4+ CD127low CD25+ Treg cells, 12-13 days; for DC50: concentration reducing protein level by 50% vs DMSO; for Dmax: Regulatory T cell, human, read-out: Maximum Observed Degradation IKZF4 Eos. As to the method: Human CD4^+ T cells were isolated from fresh healthy leukopaks (Stemcell Technologies) using the RosetteSep Human CD4^+ T cell enrichment cocktail (Stemcell Technologies) and Ficoll density gradient centrifugation. Leukopaks were diluted with an equal volume of phosphate-buffered saline (PBS [Gibco]) supplemented with 2% fetal bovine serum (FBS, VWR Lifescience) and incubated with RosetteSep Human CD4^+ T cell enrichment cocktail for 20 minutes before layering on Ficoll-Paque Plus solution (GE Health Care). The cell-rich interface layer was harvested and washed twice with PBS supplemented with 2% FBS. Regulatory T cells were then isolated manually using the EasySep Human CD4 CD1271WCD25^+ Regulatory T cell isolation kit (Stemcell Technologies) according to the manufacturer's instructions. Cells were rested overnight in Roswell Park Memorial Institute (RPMI) 1640 media (Gibco) supplemented with 10% FBS, Pen/Strep (Gibco), MEM-NEAA (Gibco), and sodium pyruvate (Gibco) in a humidified incubator (37° C., 5% CO2). Cells were then stained for CD4 (clone: RPA-T4, Biolegend), CD25 (clone: 2A3, BD Biosciences), and CD127 (clone: hIL-7R-M21, BD Biosciences). CD4^+ CD127^lowCD25^+ cells were sorted on a BD FACS Aria Fusion sorter to a purity of 95% or greater. Sorted cells were immediately used or cryopreserved for downstream assays.
Fresh or cryopreserved FACS-sorted CD4^+ CD127^lowCD25^+ Treg cells were cultured at 25,000-50,000 cells/well of 96-well round bottom plates in RPMI 1640 media (Gibco) supplemented with 10% FBS, Pen/Strep (Gibco), MEM-NEAA (Gibco), and sodium pyruvate (Gibco). Cells were stimulated with Treg Xpander beads (Thermo Fisher) at cells-to-beads ratio of 1:4 in the presence of 500 U/mL recombinant human IL-2 (Proleukin). Compounds were added at titrated doses and cells were incubated at 37° C., 5% CO2 for 12-13 days. Recombinant human IL-2 and compound were replenished every 2-3 days during the entire culture duration. On day 12 or 13, cells were restimulated with phorbol 12-myristate 13-acetate (PMA) and ionomycin in the presence of the protein transport inhibitors brefeldin A and monensin (eBioscience Cell Stimulation Cocktail plus protein transport inhibitors, 500×, Catalog number 00-4975-93) before proceeding with flow cytometry staining and analysis.
as §1, with “cocktail” for “cocktail containing LD-eFluor780, CD3-BUV-395, CD4-BUV805, CD8-FITC, and CD25-BV605”, “FoxP3 transcription factor staining” for “permeabilization”, “(Thermo Fisher)” for “(eBioscience FoxP3 buffer set 00-5523-00)”, “shown in Table C.” for “(i.e., Foxp3-BV421, HELIOS-PE-Cy7, EOS-PE, IKAROS-PECF594, AIOLOS-AF647).”, “Single stain” for “Single-stain”
Table C-1 lists the maximum observed degradation of the IKZF2 protein and IKZF4 protein as measured in the Human Regulatory T Cell Reprogramming assay. The results in Table C-1 were rounded to two digits. In the Human Regulatory T Cell Reprogramming assay, a value of 100% indicated no detectable protein remaining or complete degradation of the protein; and a value of 0% indicated no detectable degradation of the protein by the test compound.

The mark [1] stands for this setting: human PBMC, CD8+ T cells, 24 hours, read-out: Maximum Observed Degradation IKZF1 Ikaros.
The mark [2] stands for this setting: human, 24 h, Table D-1, read-out: decreased the level of IKZF1 (Ikaros).

Like-named read-outs stand apart in the source and are kept apart here.

IKZF1 Ikaros, sequence (Q13422 whole entry): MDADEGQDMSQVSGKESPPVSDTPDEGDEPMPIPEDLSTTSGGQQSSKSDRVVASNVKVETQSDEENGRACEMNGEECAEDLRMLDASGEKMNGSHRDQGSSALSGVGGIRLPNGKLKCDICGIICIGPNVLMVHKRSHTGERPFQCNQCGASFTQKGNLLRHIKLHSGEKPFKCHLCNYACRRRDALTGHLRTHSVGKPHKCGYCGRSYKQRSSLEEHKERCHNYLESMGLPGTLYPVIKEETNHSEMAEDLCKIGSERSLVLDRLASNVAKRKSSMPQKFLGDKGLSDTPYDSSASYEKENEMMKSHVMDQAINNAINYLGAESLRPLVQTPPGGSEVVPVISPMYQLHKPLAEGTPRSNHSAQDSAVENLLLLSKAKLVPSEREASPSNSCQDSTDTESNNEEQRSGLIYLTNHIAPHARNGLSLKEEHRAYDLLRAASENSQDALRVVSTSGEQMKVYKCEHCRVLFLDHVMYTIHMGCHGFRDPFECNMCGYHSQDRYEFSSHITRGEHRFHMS
IKZF1 Ikaros, sequence (Q96SW2 whole entry): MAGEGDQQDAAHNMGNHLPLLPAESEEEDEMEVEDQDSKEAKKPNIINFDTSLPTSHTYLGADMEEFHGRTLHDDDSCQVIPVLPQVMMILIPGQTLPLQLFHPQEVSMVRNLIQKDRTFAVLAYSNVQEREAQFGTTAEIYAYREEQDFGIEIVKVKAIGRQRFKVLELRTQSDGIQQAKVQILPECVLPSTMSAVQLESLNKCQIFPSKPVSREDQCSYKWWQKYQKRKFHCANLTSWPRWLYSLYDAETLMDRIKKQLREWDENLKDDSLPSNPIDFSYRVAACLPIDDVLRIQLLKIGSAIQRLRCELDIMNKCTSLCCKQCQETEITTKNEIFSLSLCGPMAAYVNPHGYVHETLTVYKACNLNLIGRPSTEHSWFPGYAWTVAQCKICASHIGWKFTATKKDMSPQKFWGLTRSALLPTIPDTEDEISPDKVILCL
IKZF1 Ikaros, sequence (Q16531 whole entry partner): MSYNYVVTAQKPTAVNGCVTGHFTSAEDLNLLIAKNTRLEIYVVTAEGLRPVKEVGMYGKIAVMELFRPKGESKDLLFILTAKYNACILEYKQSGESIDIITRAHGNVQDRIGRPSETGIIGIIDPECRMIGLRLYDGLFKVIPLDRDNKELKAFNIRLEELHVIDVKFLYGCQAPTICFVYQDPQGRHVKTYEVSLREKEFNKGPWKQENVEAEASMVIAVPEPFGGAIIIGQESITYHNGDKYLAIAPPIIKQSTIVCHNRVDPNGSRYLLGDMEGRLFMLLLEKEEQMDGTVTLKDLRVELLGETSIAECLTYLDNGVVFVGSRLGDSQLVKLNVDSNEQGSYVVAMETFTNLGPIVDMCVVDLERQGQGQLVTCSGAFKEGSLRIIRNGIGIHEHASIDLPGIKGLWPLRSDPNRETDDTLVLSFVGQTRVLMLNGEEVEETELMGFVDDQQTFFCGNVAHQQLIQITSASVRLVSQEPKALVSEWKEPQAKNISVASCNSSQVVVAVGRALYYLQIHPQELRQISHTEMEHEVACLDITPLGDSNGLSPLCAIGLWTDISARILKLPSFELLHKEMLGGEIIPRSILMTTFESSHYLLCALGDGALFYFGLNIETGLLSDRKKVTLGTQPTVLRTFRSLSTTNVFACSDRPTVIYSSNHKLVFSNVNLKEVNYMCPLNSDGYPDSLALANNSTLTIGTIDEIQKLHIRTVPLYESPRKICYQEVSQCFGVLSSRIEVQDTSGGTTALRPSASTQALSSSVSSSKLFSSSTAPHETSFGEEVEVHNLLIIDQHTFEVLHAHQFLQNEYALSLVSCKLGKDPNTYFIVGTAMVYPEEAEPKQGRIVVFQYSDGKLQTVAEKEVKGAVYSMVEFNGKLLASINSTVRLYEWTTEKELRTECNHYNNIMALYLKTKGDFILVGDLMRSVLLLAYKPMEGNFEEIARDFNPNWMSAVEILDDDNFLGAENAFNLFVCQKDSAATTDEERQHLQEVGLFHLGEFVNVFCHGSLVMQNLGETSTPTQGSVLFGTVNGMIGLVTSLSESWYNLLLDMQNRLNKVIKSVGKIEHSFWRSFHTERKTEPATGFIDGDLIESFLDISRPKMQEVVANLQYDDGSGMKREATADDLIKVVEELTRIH
T1 sequence (Q9H2S9 whole entry): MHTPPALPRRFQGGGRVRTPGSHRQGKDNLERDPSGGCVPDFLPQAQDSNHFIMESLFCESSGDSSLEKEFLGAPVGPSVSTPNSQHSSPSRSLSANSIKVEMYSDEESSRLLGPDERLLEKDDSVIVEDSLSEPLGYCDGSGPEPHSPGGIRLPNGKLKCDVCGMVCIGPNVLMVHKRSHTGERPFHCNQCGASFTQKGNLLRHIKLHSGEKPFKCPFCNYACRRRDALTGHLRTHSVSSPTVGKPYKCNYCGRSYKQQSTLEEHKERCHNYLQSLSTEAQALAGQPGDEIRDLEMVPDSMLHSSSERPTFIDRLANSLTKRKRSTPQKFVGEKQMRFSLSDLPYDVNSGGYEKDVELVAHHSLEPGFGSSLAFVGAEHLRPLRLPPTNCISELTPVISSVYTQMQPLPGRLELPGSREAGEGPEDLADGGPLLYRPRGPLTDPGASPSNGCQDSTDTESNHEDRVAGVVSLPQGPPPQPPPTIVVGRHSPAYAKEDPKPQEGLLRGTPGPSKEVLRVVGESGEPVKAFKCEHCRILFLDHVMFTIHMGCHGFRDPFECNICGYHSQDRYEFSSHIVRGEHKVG
T1 sequence (Q96SW2 whole entry): as the sequence (Q96SW2 whole entry) above
T1 sequence (Q16531 whole entry partner): as the sequence (Q16531 whole entry partner) above

With `O=C1CCC(N2Cc3c(ccc(-c4cc(CN5CC(c6ccccc6)C5)ccn4)c3F)C2=O)C(=O)N1` (centres unmarked) [Comparative Compound A, 3-(4-fluoro-1-oxo-5-(4-((3-phenylazetidin-1-yl)methyl)pyridin-2-yl)isoindolin-2-yl) piperidine-2,6-dione], the Dmax at IKZF1 Ikaros (setting [1]) is 20%; on IKZF1 Ikaros (setting [2]), not above 20%; on IKZF4 Eos it was 92%. The compound also had a DC50 on IKZF4 Eos of 0.1 nM.

In the case of `Nc1nc(-c2ccc3c(c2)CN(C2CCC(=O)NC2=O)C3=O)ccc1CN1CC2(CCC2)C1` (centres unmarked) [Comparative Compound B, 3-(5-(5-((2-azaspiro[3.3]heptan-2-yl)methyl)-6-aminopyridin-2-yl)-1-oxoisoindolin-2-yl) piperidine-2,6-dione], the Dmax at IKZF1 Ikaros (setting [1]) is 11%; at IKZF1 Ikaros (setting [2]), not above 20%; on IKZF4 Eos it was 95%. This compound yielded a DC50 on IKZF4 Eos of 1 nM.

With `Nc1nc(-c2ccc3c(c2F)CN(C2CCC(=O)NC2=O)C3=O)ccc1CN1CC2(CCCOC2)C1` (centres unmarked) [Example 1, 3-(5-(5-((6-oxa-2-azaspiro[3.5]nonan-2-yl)methyl)-6-aminopyridin-2-yl)-4-fluoro-1-oxoisoindolin-2-yl) piperidine-2,6-dione], the DC50 at IKZF1 Ikaros (human PBMC, CD8+ T cells, 24 hours, concentration reducing protein level by 50% vs DMSO) was 29 to 43 nM; on IKZF4 Eos it was 3.4 nM. The Dmax on IKZF1 Ikaros (setting [1]) is 64 to 65%; on IKZF1 Ikaros (setting [2]) it was 64 to 65%; on IKZF1 Ikaros (human, 24 h, Table E comparison, from Table D-1, read-out: IKZF1 Ikaros max % deg. observed) it was 64 to 65%; on IKZF4 Eos it was 65%.

These data come from patent US20260297106A1, “SPIROCYCLIC SUBSTITUTED OXOISOINDOLINYL PIPERIDINE-2,6-DIONE COMPOUND” (Bristol-Myers Squibb Company, priority 2023, published 2026).
